The data set is described as follows: solubility in water. As to conditions: compared with antibiotics R106.

*1 amine or outer side, *2 acyl side, *3 side chain or, on linkers, in order; H or OH if unused. Where a SMILES comes first, the peptide text is derived from it. [ ]: non-standard residue; d: D form. ξ: configuration not given here. NMePhe(3-F) = CN[CH](Cc1cccc(F)c1)C(=O)O; NMePhe(2-F) = CN[CH](Cc1ccccc1F)C(=O)O; Phe(3-F) = N[CH](Cc1cccc(F)c1)C(=O)O; ξNMeVal(3-OH) = CNC(C(=O)O)C(C)(C)O; Phe(2-F) = N[CH](Cc1ccccc1F)C(=O)O; NMeY = CN[CH](Cc1ccc(O)cc1)C(=O)O; NMeF = CN[CH](Cc1ccccc1)C(=O)O; X1 = CCC(C)C(O[*:1])C(=O)[*:2]; Hyp = O=C(O)[CH]1C[CH](O)CN1; NMeV = CN[CH](C(=O)O)C(C)C; NMeS = CN[CH](CO)C(=O)O; Thz = O=C(O)[CH]1CSCN1

Take `CCC(C)C1NC(=O)C2CCCN2C(=O)C(Cc2ccccc2F)N(C)C(=O)C(Cc2ccccc2F)NC(=O)C(C(C)C)N(C)C(=O)C(C(C)CC)OC(=O)C(C(C)(C)O)N(C)C(=O)C(CC(C)C)NC(=O)C(C(C)C)N(C)C1=O` (stereo not drawn) [Compound 1] (cyclo([ξNMeVal(3-OH)][X1][NMeV][Phe(2-F)][NMePhe(2-F)]PI[NMeV]L); configuration not given here): the solubility in water entry is “higher solubility in water than antibiotics R106”.

Turning to `CCC(C)C1NC(=O)C2CCCN2C(=O)C(Cc2cccc(F)c2)N(C)C(=O)C(Cc2cccc(F)c2)NC(=O)C(C(C)C)N(C)C(=O)C(C(C)CC)OC(=O)C(C(C)(C)O)N(C)C(=O)C(CC(C)C)NC(=O)C(C(C)C)N(C)C1=O` (stereo not drawn) [Compound 2] (cyclo([ξNMeVal(3-OH)][X1][NMeV][Phe(3-F)][NMePhe(3-F)]PI[NMeV]L); configuration not given here), the solubility in water entry is on record as “higher solubility in water than antibiotics R106”.

As for `CCC(C)C1NC(=O)C2CCCN2C(=O)C(Cc2ccc(O)cc2)N(C)C(=O)C(Cc2ccc(O)cc2)NC(=O)C(C(C)C)N(C)C(=O)C(C(C)CC)OC(=O)C(C(C)(C)O)N(C)C(=O)C(CC(C)C)NC(=O)C(C(C)C)N(C)C1=O` (stereo not drawn) [Compound 3] (cyclo([ξNMeVal(3-OH)][X1][NMeV]Y[NMeY]PI[NMeV]L); configuration not given here), the solubility in water result is listed as “higher solubility in water than antibiotics R106”. With `CCC(C)C1NC(=O)C2CC(O)CN2C(=O)C(Cc2ccccc2)N(C)C(=O)C(Cc2ccccc2)NC(=O)C(C(C)C)N(C)C(=O)C(C(C)CC)OC(=O)C(C(C)(C)O)N(C)C(=O)C(CC(C)C)NC(=O)C(C(C)C)N(C)C1=O` (stereo not drawn) [Compound 4] (cyclo([ξNMeVal(3-OH)][X1][NMeV]F[NMeF][Hyp]I[NMeV]L); configuration not given here) the entry was “higher solubility in water than antibiotics R106”. The result for `CCC(C)C1NC(=O)C2CSCN2C(=O)C(Cc2ccccc2)N(C)C(=O)C(Cc2ccccc2)NC(=O)C(C(C)C)N(C)C(=O)C(C(C)CC)OC(=O)C(C(C)(C)O)N(C)C(=O)C(CC(C)C)NC(=O)C(C(C)C)N(C)C1=O` (stereo not drawn) [Compound 5] (cyclo([ξNMeVal(3-OH)][X1][NMeV]F[NMeF][Thz]I[NMeV]L); configuration not given here) reads “higher solubility in water than antibiotics R106”.

On to `CCC(C)C1NC(=O)C2CCCN2C(=O)C(CO)N(C)C(=O)C(Cc2ccccc2)NC(=O)C(C(C)C)N(C)C(=O)C(C(C)CC)OC(=O)C(C(C)(C)O)N(C)C(=O)C(CC(C)C)NC(=O)C(C(C)C)N(C)C1=O` (stereo not drawn) [Compound 9] (cyclo([ξNMeVal(3-OH)][X1][NMeV]F[NMeS]PI[NMeV]L); configuration not given here), for which the solubility in water result is “higher solubility in water than antibiotics R106”.

(Values after patent publication EP0510271A1, “Novel R106 compounds” (TAKARA SHUZO CO. LTD., priority 1991, dated 1992).)
